Reference: patent publication US20190367558A1, “ANTIBODY/DRUG CONJUGATES AND METHODS OF USE” (ESPERANCE PHARMACEUTICALS, INC., priority 2012, published 2019)
“Also recorded” adds a separate entry of the source. Where two headings read alike, the source gives them in different places.

How the values were obtained:
Format in all cases: cell-based, human
[1] = tested on: U937 (CD20 negative leukemia cell line); assay: Cell viability, Cell Titer Glo luminescent assay (Examples 12, 16, 19, 20, 22); conditions: for IC50, U937 (CD20 negative) 2-46 h: U937, 2-46 h (membrane integrity and viability time points), Example 12; for IC50, U937 2-48 h: Example 16
Description: (§1) Naked antibody anti-CD20-IgG1-Phor18 were chemically conjugated (MS4A and AT80), Mw app.158,000 g/mol at a concentrations of 0.34 mg/ml (MS4A-Phor18) and 0.76 mg/ml (AT-80-Phor18). Cell lines were obtained at the American Type Cell Collection (Mannassas, Va.). Human Non-Hodgkin's lymphoma cells Daudi (CD20 positive, passage number p2), Raji (CD20 positive p 2) and human leukemia cell line U937 (CD20 negative, p 10) were seeded at a density of 3,000 cells per well in opaque plates in heat inactivated full medium. After 24 hours cells were replenished with fresh media (75 μl) and incubated with 25 μl of a 4× serial dilution of MS4A1-Phor18 and AT80-Phor18 of 0.001, 0.01, 0.1, 1, 10, 100 and 500 nM (N=6). Cells incubated for 2-5 hours were assayed for membrane integrity using a luminometric assay kit (Promega, Madison, Wis., Cytotox Glo G9292 lot #301329). Cell viability was determined was determined after 24, and 48 hours using a luminescent assay kit (Promega, Madison, Wis., Cell Titer Glo, G 7572, lot 30068102).
(§2) The concentration of each naked antibody fragment and ADC was determined according to Bradford. Naked antibody scFv Mw 27,088 g/mol at a concentration of 0.3 mg/ml, minibody Mw 78,988 g/mol, 0.231 mg/ml; Phor 18 conjugated antibodies were scFv-Phor18 (Mw 29,349 g/mol, 0.9 mg/ml) and minibody-Phor18 (Mw 93,515, 0.48 mg/ml). Cell lines were obtained at the American Type Cell Collection (Mannassas, Va.). Human Non-Hodgkin's lymphoma cells Daudi (CD20 positive, passage number p8) and human leukemia cell line U937 (CD20 negative, p 16) were seeded at a density of 2,000 cells per well in opaque plates in heat inactivated full medium. After 24 hours cells were replenished with fresh media (75 μl) and incubated with 25 μl of a 4× serial dilution of scFv-Phor18 and minibody-Phor18 ADC and naked antibody fragment (scFv and minibody) prepared in cell culture media were added at concentrations of 0.0001, 0.001, 0.01, 0.1, 1, 10, 100, 200, and 500 nM (N=6). Cells incubated for 4 hours were assayed for membrane integrity using a luminometric assay kit (Promega, Madison, Wis., Cytotox Glo G9292 lot #301329). Cell viability was determined was determined after 24, 48 and 72 hours using a luminescent assay kit (Promega, Madison, Wis., Cell Titer Glo, G 7572, lot 30062102).
(§3) The concentration of each naked antibody fragment and ADC was determined spectrophotometrically (OD280). Naked antibody scFv-Fc Mw 52,562 g/mol at a concentration of 1.1 mg/ml, Phor 18 conjugated antibodies were Phor18-VL-scFvFc (Mw 54,685 g/mol, 1.0 mg/ml), scFv-Fc-CH3-Phor18 (Mw 54,685 g/mol, 0.8 mg/ml). Human Non-Hodgkin's lymphoma cells Daudi (CD20 positive, passage number p7) and human leukemia cell line U937 (CD20 negative, p 6) were seeded at a density of 2,000 cells per well in opaque plates in heat inactivated full medium using cell dissociation buffer. After 24 hours cells were replenished with fresh media (75 μl) and incubated and incubated with 25 μl of a 4× serial dilution of each ADC and naked antibody prepared in cell culture media were added at concentrations of 0.01, 0.1, 1, 10, 100, 200 and 500 nM for scFvFc, Phor18-VL-scFvFc and scFv-Fc-CH3-Phor18.
Cells incubated for 4 hours were assayed for membrane integrity using a luminometric assay kit (Promega, Madison, Wis., Cytotox Glo G9292 lot #26229601). Cell viability was determined was determined after 24 hours using a luminescent assay kit (Promega, Madison, Wis., Cell Titer Glo, G 7572, lot 30731602). Controls for 100% cell viability (culture media) and 100% cell death (0.1% Triton X 100) incubated under the same conditions.
Human Non-Hodgkin's lymphoma cells Daudi (CD20 positive, passage number p3) and human leukemia cell line U937 (CD20 negative, p 12) were seeded at a density of 2,000 cells per well in opaque plates in heat inactivated full medium using cell dissociation buffer. […]

[2] = tested on: Daudi (CD20 positive Non-Hodgkin's lymphoma cells); assay: Membrane integrity, Cytotox Glo luminometric assay (Examples 12, 16, 19, 20, 22); conditions: membrane integrity
Description: as §1, §2
(§4) Controls for 100% cell viability (culture media) and 100% cell death (0.1% Triton X 100) incubated under the same conditions.
(§5) Data were processed and analyzed to obtain IC50 values using Graph Pad Prizm version 5.00 for Windows, GraphPad Software, San Diego Calif. USA, www-graphpad-com (Graph Pad Prizm, Inc). Statistical analysis for significance was determined by a two-tailed Student's T-test. Each test was conducted using 2 plates with 2-3 wells each to achieve an N of 4-6 data points per time point.
as §3
(§6) Cells incubated for 4 hours were assayed for membrane integrity using a luminometric assay kit (Promega, Madison, Wis., Cytotox Glo G9292 lot #26229601). Cell viability was determined was determined after 24 hours using a luminescent assay kit (Promega, Madison, Wis., Cell Titer Glo, G 7572, lot 30731602). […]

[3] = tested on: Daudi (CD20 positive Non-Hodgkin's lymphoma cells); assay: Cell viability, Cell Titer Glo luminescent assay (Examples 12, 16, 19, 20, 22)
Description: as §1, §2, §4, §5, §3, §6

[4] = tested on: Raji (CD20 positive Non-Hodgkin's lymphoma cells); assay: Cell viability, Cell Titer Glo luminescent assay (Example 12)
Description: as §1

[5] = tested on: Raji (CD20 positive Non-Hodgkin's lymphoma cells); assay: Membrane integrity, Cytotox Glo luminometric assay (Example 12)
Description: as §1

[6] = tested on: caspase 3/7 in Daudi cells (CD20 positive); assay: Caspase 3/7 activation, Caspase Glo 3/7 luminometric assay (Examples 13, 17); conditions: 5 hours; scFv-Phor18 or scFv at 5 and 15 μg/ml; Staurosporine 10 μM = 100%; Daudi (Raji also seeded)
Description: Human Non-Hodgkin's lymphoma cells Daudi (CD20 positive, passage number p2), were seeded at a density of 3,000 cells per well in opaque plates in heat inactivated full medium. After 24 hours cells were fed with fresh media (75 μl) and incubated with AT80-Phor18 (0.76 mg/ml) or naked antibody AT-80 of 15 and 75 μg/ml (100 and 500 nM) (N=6). Staurosporine at 10 μM served as positive control for caspase 3/7 activation. After 5 hours of incubatin cultures were assayed for caspase 3/7 levels using a luminometric assay kit (Promega, Madison, Wis., Caspase Glo 3/7 G811C lot #28731802).
Caspase 3/7 activation was calculated from relative light units from luminometric signals. Staurosporine was set at 100% caspase 3/7 activation, cell suspension alone without additions of reagents served as 0% caspase levels.
In in vitro studies, caspase activation of recombinantly expressed CD20 targeting scFv-Phor18 conjugate with “naked” antibody (scFv) in CD20 positive cells (Daudi Burkitt's lymphoma) was compared. Human Non-Hodgkin's lymphoma cells Daudi (CD20 positive, p 5) and Raji (CD20 positive, passage number p 3), were seeded at a density of 3,000 cells per well in opaque plates in heat inactivated full medium. […]
Relative caspase 3/7 activation was calculated from relative light units from luminometric signals. […]

[7] = Example 12, listed as MS4A1-Phor18
[8] = 46 h (text: 48 h / 46 hours), Example 16

Anti-CD20 MS4A1: naked anti-CD20 antibody MS4A1 (Rituximab Like, R&D) [reference compound]
IC50, U937 (CD20 negative) 2-46 h [1]: Not toxic | IC50, Daudi 2 h ([2]; Example 12): Not toxic | IC50, Daudi 5 h ([2]; Example 12): Not toxic | IC50, Daudi 24 h ([3]; 24 h, Example 12): Not toxic | IC50, Daudi 46 h ([3]; 46 h (text: 48 h), Example 12): Not toxic | IC50, Raji 24 h ([4]; 24 h): Not toxic | IC50, Raji 46 h ([4]; 46 h (text: 48 h)): Not toxic

Anti-CD20-Phor18 (MS4A1)
IC50, U937 (CD20 negative) 2-46 h [1]: Not toxic | IC50, Daudi 2 h ([2]; Example 12): Not toxic | IC50, Daudi 2 h [2, 7]: not active | IC50, Daudi 5 h ([2]; Example 12): Not toxic | IC50, Daudi 5 h [2, 7]: not active | IC50 ([3]; 24 h, Example 12, read-out: IC50, Daudi 24 h): 10.6 ± 2.1 nM | IC50 ([3]; 46 h (text: 48 h), Example 12, read-out: IC50, Daudi 46 h): 3 ± 1.2 nM | IC50, Raji 2 h ([5]; 2 h): not active | IC50, Raji 5 h ([5]; 5 h): not active | IC50 ([4]; 24 h, listed as MS4A1-Phor18, read-out: IC50, Raji 24 h): 267 ± 13 nM | IC50 ([4]; 24 h, read-out: IC50, Raji 24 h): 267 ± 13 nM | IC50 ([4]; 46 h (text: 48 h), read-out: IC50, Raji 46 h): 227 ± 11 nM

B1: scFv: naked single chain Fv anti-CD20 fragment with Rituxan CDRs, E. coli, SEQ ID NO.:92 (protein)
scFv: HHHHHHDIQLTQSPAILSASPGEKVTMTCRASSSVSYIHWFQQKPGSSPKPWIYATSNLASGVPVRFSGSGSGTSYSLTISRVEAEDAATYYCQQWTSNPPTFGGGTKLEIGSTSGGGSGGGSGGGGSSVQLQQPGAELVKPGASVKMSCKASGYTFTSYNMHWVKQTPGRGLEWIGAIYPGNGDTSYNQKFKGKATLTADKSSSTAYMQLSSLTSEDSAVYYCARSTYYGGDWYFDVWGQGTTVTVSS
IC50, U937 2-48 h [1]: not killed; also recorded: Not toxic | IC50, Daudi 2 h ([2]; E. coli expressed, Example 16): Not toxic | IC50, Daudi 5 h ([2]; E. coli expressed, Example 16): Not toxic | IC50, Daudi 24 h ([3]; 24 h, Example 16): Not toxic | IC50, Daudi 46 h [3, 8]: Not toxic | Caspase 3/7 levels compared to Staurosporine [6]: did not detectably activate caspases

B2: Fv-CH3-CH3-Fv: naked bivalent anti-CD20 minibody, E. coli, SEQ ID NO.:94 (protein)
chain: DIQLTQSPAILSASPGEKVTMTCRASSSVSYIHWFQQKPGSSPKPWIYATSNLASGVPVRFSGSGSGTSYSLTISRVEAEDAATYYCQQWTSNPPTFGGGTKLEIGSTSGGGSGGGSGGGGSSVQLQQPGAELVKPGASVKMSCKASGYTFTSYNMHWVKQTPGRGLEWIGAIYPGNGDTSYNQKFKGKATLTADKSSSTAYMQLSSLTSEDSAVYYCARSTYYGGDWYFDVWGQGTTVTVSSGQPREPQVYTLPPSRDELTKNQVSLTCLVKGFYPSDIAVEWESNGQPENNYKTTPPVLDSDGSFFLYSKLTVDKSRWQQGNVFSCSVMHEALHNHYTQKSLSLSPGKGSTSGGGSGGGSGGGGSSGQPREPQVYTLPPSRDELTKNQVSLTCLVKGFYPSDIAVEWESNGQPENNYKTTPPVLDSDGSFFLYSKLTVDKSRWQQGNVFSCSVMHEALHNHYTQKSLSLSPGKVQLQQPGAELVKPGASVKMSCKASGYTFTSYNMHWVKQTPGRGLEWIGAIYPGNGDTSYNQKFKGKATLTADKSSSTAYMQLSSLTSEDSAVYYCARSTYYGGDWYFDVWGQGTTVTVSSGSTSGGGSGGGSGGGGSSDIQLTQSPAILSASPGEKVTMTCRASSSVSYIHWFQQKPGSSPKPWIYATSNLASGVPVFSGSGSGTSYSLTISRVEAEDAATYYCQQWTSNPPTFGGGTKLEI
IC50, U937 2-48 h [1]: Not toxic | IC50, Daudi 24 h ([3]; 24 h, Example 16): Not toxic | IC50, Daudi 46 h [3, 8]: Not toxic
